Results as given in patent publication US20010014324A1 (priority 1998, published 2001).

Legend:
[1] = tested on: Phytophthora infestans; assay type: in vivo; details: potato; standard chemical inducer at 500 ppm
[2] = tested on: Puccinia recondita spp. tritici; test: Induced plant defense on wheat against Puccinia recondita spp. tritici (spray treatment); assay type: in vivo
Description: Ten seeds of wheat ([…]) of the variety “Arina” were grown in pots of 8 cm diameter in a mixture of ⅓ sand and ⅔ TKS1® soil at +25° C. in a 16/8 h light/dark regime. for 7 days till the primary leaf was fully expended.
Brown rust strain Puccinia recondita spp. tritici was propagated on the same variety of wheat. Fully infected, sporulating leaves were cut and the spores dusted onto water containing 0.05% of Tween 20®. The inoculum density was adjusted to 100,000 spores per ml.
Wheat plants with the secondary leaf just emerging were sprayed 7 and 3 days before inoculation. The entire plant was sprayed with PEN extract containing 1-2 g of glucose equivalents and 0.05% of Tween 20 to near run-off with an air driven spray pistol, model JATO 232 FR at 0.5 bar.
After the treatment plants were kept in the greenhouse till they were challenge inoculated. Control plants were mock treated with distilled water.
Treated or control plants were sprayed with approximately 3 ml of sporangia suspension in a ventilated inoculation chamber using an air driven spray pistol, model JATO 232 FR at 0.2 bar to generate a homogeneous layer of fine troplets on the whole seedling.
When the troplets had dried, plants were transferred to Plexiglas boxes and kept at +20° C. and a 60% relative humidity for 24 h in the dark then light was switched on and the plants kept under the same conditions for additional four days. Afterwards plants were returned to the greenhouse and kept at standard conditions as described above.
10 days after inoculation, when the fungus sporulated on control plants, the degree of infection was visually determined as % of infected leaf area on the inoculated leaves plants. The degree of protection was calculated with respect to the control plants according to the formula: [formula]

Structure (SMILES)	% infected leaf area [1] [%]	% protection [1] [%]	% infected ([2]; concentration 30 ppm) [%]	% protection ([2]; concentration 30 ppm) [%]	% infected ([2]; concentration 60 ppm) [%]	% protection ([2]; concentration 60 ppm) [%]
CC(N)CC(=O)O (stereo not drawn) [BABA, beta-butyric acid]	23	61	–	–	–	–
CSC(=O)c1cccc2nnsc12 [CGA 245 704]	–	–	31.3	48.8	60	20
